Consider 2 compounds from patent EP1479388A1, “Ready to use gemcitabin solution concentrates” (STADA ARZNEIMITTEL AG, priority 2003, dated 2004).

In brackets after ≈: the same amount, converted by molar mass. Structures can show the parent of a compound that is named as a salt. Where two headings read alike, the source gives them in different places.

Series [1] in a line: Saturation concentration of gemcitabine in aqueous-ethanolic solutions, HPLC (Beispiel 3). The format is physicochemical. The settings on record: interpolation (Polynom 6. Grades), ca. 66 Vol.% Ethanolanteil, pH 10 +/-0,5. An excerpt:
Um die Sättigungskonzentration von Gemcitabin in wässrig-ethanolischeh Lösungen zu ermitteln, wurden Gemcitabin-Lösungen mit verschiedenen Volumenanteilen an Ethanol hergestellt und analysiert.
Hierzu wurde Gemcitabinhydrochlorid im Ansatzbehälter vorgelegt, mit einer stöchiometrischen Menge an wässrig gelöstem Alkalisierungsmittel (1 N Natronlauge) versetzt, anschließend mit jeweils 80 % der in Vortests ermittelten erforderlichen Mengen an Wasser für Injektionszwecke als auch mit jeweils erforderlichen Mengen an Ethanol versetzt.
Die im Ansatz enthaltenen Bestandteile wurden anschließend unter 6-stündigem Rühren bei Raumtemperatur (19-23 °C) derart gelöst, dass ein ungelöster Bodensatz an Gemcitabinhydrochlorid im Ansatzbehälter verblieb. Der pH-Wert des Ansatzes wurde potentiometrisch bestimmt und erforderlichenfalls mit 1 N Natronlauge bzw. 1 N Salzsäure auf einen pH-Wert von 10 eingestellt, um mit diesem pH-Wert eine vollständige Umsetzung des Gemcitabinhydrochlorids zur gelösten Gemcitabinbase zu erzielen.
Der Ansatz wurde 24 Stunden bei 19-23 °C gelagert. Der pH-Wert wurde anschließend kontrolliert und nur solche klaren Überstände der Ansätze weiterverarbeitet, deren pH-Werte 10 +/- 0,5 betrugen. Diese wurden dann partikelfrei filtriert und der Gehalt an Gemcitabin per HPLC bestimmt.

The nature of series [2]: Maximum solubility in 66 Vol.-% ethanol after dissolving at 35-45 °C and cooling, HPLC (Beispiel 4). The settings on record: dissolved at 35-45 °C 6 h, cooled, 24 h at 19-23 °C. The format is physicochemical. Here is the method: Die maximale Löslichkeit von Gemcitabinhydrochlorid wurde unter weiterer Verwendung von 1 N Natronlauge, Wasser für Injektionszwecke und absolutem Ethanol, in als hierfür optimal erkanntem 66 Vol.-%-igem Anteil bei gesteigerten Lösungstemperaturen (35-45 °C, 6 Stunden Rühren) und anschließendem Abkühlen auf Raumtemperatur (19-23 °C) und 24-stündiger Lagerung bei 19-23 °C ermittelt. Hierbei wurde im partikelfreien Überstand der gelagerten Lösungen mittels HPLC ein Gehalt von 95,1 mg/ml Gemcitabin bzw. 108,3 mg/ml Gemcitabinhydrochlorid bestimmt.

For series [3] the following is noted: cited from earlier work.

In the case of `Nc1ccn([C@@H]2O[C@H](CO)[C@@H](O)C2(F)F)c(=O)n1` [Gemcitabinhydrochlorid], the “Maximum der Gemcitabin-Löslichkeit” value in series [1] came to 55 mg/mL. Further, in series [2] (1440 min), the “maximale Löslichkeit (Gehalt im partikelfreien Überstand)” value was 108,3 mg/ml.

For `Nc1ccn([C@@H]2O[C@H](CO)[C@@H](O)C2(F)F)c(=O)n1` [Gemcitabin, 2'-Deoxy-2',2'-difluorcytidin], the solubility thermodynamic in series [1] (66 vol% aqueous ethanol, pH 10, organic solvent or mixture, read-out: Maximum der Gemcitabin-Löslichkeit) turned out to be 50 mg/mL (≈ 190 mM). Besides, the “Löslichkeit des Gemcitabins in Wasser” value in series [3] (pH-Bereich von 2,7 bis 3,3) was “ca. 38 mg/ml”; in series [3] (pH-Wert von 5) it was 16,0 mg/ml; in series [3] (pH-Wert von 7), 15,3 mg/ml; in series [3] (pH-Wert von 9), 15,8 mg/ml. In addition, the solubility at 24 h in series [2] (66 vol% aqueous ethanol, organic solvent or mixture, read-out: maximale Löslichkeit (Gehalt im partikelfreien Überstand)) stood at 95.1 mg/mL (≈ 361 mM).
